{"source": "patent US20020173640A1", "about": "“ADAM polynucleotides, polypeptides, and antibodies” (Human Genome Sciences, Inc., priority 1999, published 2002)", "molecules": {"B1": {"name": "Gene NO: 1: human ADAM polypeptide encoded by cDNA clone HDPDH32, homologous to murine metalloproteinase-disintegrin meltrin beta (protein, listed as Homo sapiens)", "chain": "MPGGAGAARLCLLAFALQPLRPRAAREPGWTRGSEEGSPKLQHELIIPQWKTSESPVREKHPLKAELRVMAEGRELILDLEKNEQLFAPSYTETHYTSSGNPQTTTRKLEDHCFYHGTVRETELSSVTLSTCRGIRGLITVSSNLSYVIEPLPDSKGQHLIYRSEHLKPPPGNCGFEHSKPTTRDWALQFTQQTKKRPRRMKREDLNSMKYVELYLVADYLEFQKNRRDQDATKHKLIEIANYVDKFYRSLNIRIALVGLEVWTHGNMCEVSENPYSTLWSFLSWRRKLLAQKYHDNAQLITGMSFHGTTIGLAPLMAMCSVYQSGGVNMDHSENAIGVAATMAHEMGHNFGMTHDSADCCSASAADGGCIMAAATGHPFPKVFNGCNRRELDRYLQSGGGMCLSNMPDTRMLYGGRRCGNGYLEDGEECDCGEEEECNNPCCNASNCTLRPGAECAHGSCCHQCKLLAPGTLCREQARQCDLPEFCTGKSPHCPTNFYQMDGTPCEGGQAYCYNGMCLTYQEQCQQLWGPGARPAPDLCFEKVNVAGDTFGNCGKDMNGEHRKCNMRDAKCGKIQCQSSEARPLESNAVPIDTTIIMNGRQIQCRGTHVYRGPEEEGDMLDPGLVMTGTKCGYNHICFEGQCRNTSFFETEGCGKKCNGHGVCNNNQNCHCLPGWAPPFCNTPGHGGSIDSGPMPPESVGPVVAGVLVAILVLAVLMLMYYCCRQNNKLGQLKPSALPSKLRQQFSCPFRVSQNSGTGHANPTFKLQTPQGKRKVINTPEILRKPSQPPPRPPPDYLRGGSPPAPLPAHLSRAARNSPGPGSQIERTESSRRPPPSRPIPPAPNCIVSQDFSRPRPPQKALPANPVPGRRSLPRPGGASPLRPPGAGPQQSRPLAALAPKFPEYRSQRAGGMISSKI"}, "B2": {"name": "hADAM-19: Flag-tagged hADAM-19 protein (residues 26-701 of SEQ ID NO: 9) purified from transfected 293T cells (protein, listed as Homo sapiens)", "chain": "REPGWTRGSEEGSPKLQHELIIPQWKTSESPVREKHPLKAELRVMAEGRELILDLEKNEQLFAPSYTETHYTSSGNPQTTTRKLEDHCFYHGTVRETELSSVTLSTCRGIRGLITVSSNLSYVIEPLPDSKGQHLIYRSEHLKPPPGNCGFEHSKPTTRDWALQFTQQTKKRPRRMKREDLNSMKYVELYLVADYLEFQKNRRDQDATKHKLIEIANYVDKFYRSLNIRIALVGLEVWTHGNMCEVSENPYSTLWSFLSWRRKLLAQKYHDNAQLITGMSFHGTTIGLAPLMAMCSVYQSGGVNMDHSENAIGVAATMAHEMGHNFGMTHDSADCCSASAADGGCIMAAATGHPFPKVFNGCNRRELDRYLQSGGGMCLSNMPDTRMLYGGRRCGNGYLEDGEECDCGEEEECNNPCCNASNCTLRPGAECAHGSCCHQCKLLAPGTLCREQARQCDLPEFCTGKSPHCPTNFYQMDGTPCEGGQAYCYNGMCLTYQEQCQQLWGPGARPAPDLCFEKVNVAGDTFGNCGKDMNGEHRKCNMRDAKCGKIQCQSSEARPLESNAVPIDTTIIMNGRQIQCRGTHVYRGPEEEGDMLDPGLVMTGTKCGYNHICFEGQCRNTSFFETEGCGKKCNGHGVCNNNQNCHCLPGWAPPFCNTPGHGGSIDSGPMPPESVG", "modifications": "Flag tag"}}, "key": {"[1]": {"tested_on": "lamivudine-resistant isolates", "settings": "cited from earlier work"}, "[2]": {"tested_on": "protease inhibitor-resistant viruses", "settings": "cited from earlier work"}, "[3]": {"tested_on": "human metastatic melanoma (M24 cells)", "settings": "cited from earlier work"}, "M24 cells": {"tested_on": "M24 cells", "settings": "murine metastasis model; cited from earlier work"}, "alpha-2 macroglobulin": {"tested_on": "alpha-2 macroglobulin", "assay": "metal-dependant proteolysis of alpha-2 macroglobulin", "format": "biochemical", "settings": "see Example 19"}, "bovine casein": {"tested_on": "bovine casein", "assay": "Substrate specificity: casein", "format": "biochemical", "description": "(§1) The following assay(s) are useful in determining the presence of protease activity. Gelatin and casein zymography are performed essentially as described (Heusen et al., Anal. Biochem., 102:196-202 (1980); Wilson et al., Journal of Urology, 149:653-658 (1993)). Samples are run on 10% polyacryamide/0.1% SDS gels containing 1% gelain orcasein, soaked in 2.5% triton at room temperature for 1 hour, and in 0.1M glycine, pH 8.3 at 37° C. 5 to 16 hours. After staining in amido black areas of proteolysis apear as clear areas agains the blue-black background. Trypsin (Sigma T8642) is used as a positive control."}, "[4]": {"tested_on": "rat tail tendon type I gelatin", "assay": "Substrate specificity: gelatin", "format": "biochemical", "description": "as §1"}, "[5]": {"tested_on": "alpha-2-macroglobulin (α2-M)", "assay": "Complex formation between hADAM-19 and α2-M (Western blot, anti-Flag)", "format": "binding, Bovine", "settings": "37° C. for 16 h; Western blot with anti-Flag Ab", "description": "Complex Formation Between hADAM-19 and α2-M Human ADAM-19 transient transfected supernatant was concentrated by about 10-fold in a 0.4 ml Ultrafree MC filter unit (Low Binding Regenerated Cellulose membrane, MW cutoff 10 kDa) from Millipore. 40 μl of the concentrated sample were mixed with TBSZ buffer (50 mM Tris.HCl, 150 mM NaCl, 5 μM ZnCl2) with or without α2-M protein (Roche Molecular Biochemicals, final concentration, 1 unit/ml) in a total 50 μl reaction volume and incubated at 37° C. for 16 h. The samples were boiled in Lamini sample buffer and loaded on a 4-12% percent Tris-Giycine gel. In the case of purified hADAM-19 protein, one to 10 μl of purified protein were incubated with α2-M protein in TBSZ buffer in a total of 50 μl reaction volume and incubated at 37° C. for 16 h. Anti-Flag M2 antibody (Ab), at 1 μg/ml concentration (Sigma), was used as primary Ab. Peroxidase-labelled goat anti-mouse Ab from Amersham Pharmacia Biotech was used as secondary Ab at 1:2000 dilution."}, "[6]": {"tested_on": "alpha-2-macroglobulin (α2-M)", "assay": "Cleavage of α2-M by hADAM-19", "format": "biochemical, Bovine", "settings": "37° C.; new bands of 105 kDa and 72 kDa; dose-dependent", "description": "The time course of hydrolysis of α2-M by hADAM-19 was examined. Ten μl of purified hADAM-19 (50 μg/ml) were mixed with 23.8 μl α2-M (0.2 unit)ml) in 66.24 μl 1× assay buffer (50 mM HEPES, pH 7.5, 0.2 M NaCl, 10 mM CaCl2, 25 μM ZnCl2 and 0.05% Brij-35) and incubated at 37° C. for 1-5 days. Trypsin was used as a positive control. The molar ratios between α2-M and hADAM-19 or trypsin were from 1:1 to 5:1. The samples were collected and boiled in SDS-PAGE sample buffer containing 5% 2-mercaptoethanol for 5-min, then loaded onto an 8% SDS-polyacrylamide gel. After electrophoresis the proteins were visualized by silver staining method."}}}
{"molecule": "Nc1ccn([C@H]2CO[C@@H](CO)S2)c(=O)n1", "note": "[dOTC]", "values": [{"measurement": "activity against lamivudine-resistant isolates", "setting": "[1]", "value": "retains activity against a substantial proportion of lamivudine-resistant isolates"}]}
{"molecule": "Cc1ccccc1CNC(=O)[C@H]1N(C(=O)[C@@H](O)[C@H](Cc2ccccc2)NC(=O)c2cccc(O)c2C)CSC1(C)C", "note": "[AG-1776]", "values": [{"measurement": "in vitro activity against protease inhibitor-resistant viruses", "setting": "[2]", "value": "in vitro activity against protease inhibitor-resistant viruses"}]}
{"molecule": "contortrostatin", "values": [{"measurement": "inhibition of M24 cell adhesion to laminin", "setting": "[3]", "value": "not laminin"}, {"measurement": "inhibition of M24 cell adhesion to type I collagen, vitronectin, and fibronection", "setting": "[3]", "value": "inhibit"}, {"measurement": "inhibition of lung colonization of M24 cells", "setting": "M24 cells", "value": "inhibits lung colonization"}]}
{"molecule": "B1", "values": [{"measurement": "metal-dependant proteolysis of alpha-2 macroglobulin", "setting": "alpha-2 macroglobulin", "value": "displayed metal-dependant proteolysis of alpha-2 macroglobulin"}]}
{"molecule": "B2", "values": [{"measurement": "dissolution of bovine casein", "setting": "bovine casein", "value": "not dissolved"}, {"measurement": "dissolution of rat tail tendon type I gelatin", "setting": "[4]", "value": "not dissolved"}, {"measurement": "complex formation with α2-M", "setting": "[5]", "value": "formed a complex of 170 kDa band with α2-M"}, {"measurement": "cleavage of α2-M", "setting": "[6]", "value": "cleaved α2-M"}]}
